Oligonucleotides are written 5' to 3', each unit as a sugar letter and its base; * is a phosphorothioate linkage, no mark a phosphodiester; rarer units and linkages stand in square brackets, end groups in braces. Plain capitals give the bases only. m = 2'-O-methyl
Experiments:
dystrophin exon 23 = assay: Exon 23 skip analysis in differentiated murine C2C12 myotubes; assay type: cell-based, mouse
Protocol: Murine myoblast cell line C2C12 was maintained in 10% FBS DMEM medium+Pen/Strep and plated at 240,000 cells per well (cpw) in 24-well plates or 40,000 cpw in 96-well plates (wp) in maintenance medium (10% FBS in DMEM medium+Pen/Strep) and incubated at 37° C. with 5% CO2. Twenty-four hours after seeding, cells were switched to differentiation media (2% horse serum in DMEM) and incubated for 3 days before refreshing the medium. After another 24 hours, medium was refreshed again and compounds were added and incubated for 48 hours. Differentiation medium was then refreshed (without compounds), and cells were incubated for another 24 hours. At 72 hours total post treatment, cells in the 24-wp were harvested for exon skip analysis and the cell viability was assessed on the 96-wp.
For analysis of skip from murine cell lines, cells were harvested and RNA was isolated using 0.5 ml TRIzol™ Reagent (Thermo Scientific) per sample, according to the manufacturer's instruction. For analysis of tissue, 30-50 mg frozen tissue was first cut into smaller pieces and mRNA was isolated using TRIzol™ Reagent (Thermo Scientific) and a TissueLyser LT (Qiagen) according to the manufacturer's instruction. For cDNA synthesis per sample, to 0.5 μg RNA in 5.0 μl, 10.0 μl ddH2O, 4 μl 5× iScript™ Reaction Mix and 1.0 μl iScript™ Reverse Transcriptase (BioRad) were added to yield a total volume of 20.0 μl per reaction. The RT-PCR was run for 5 min at 25° C., 60 min at 46° C., and 2 min at 95° C. For skip analysis, SapphireAmp™ Fast PCR Master Mix (TakaraBio) was used according to the manufacturer's instructions. To this end, 9.7 μl RNAse free water, 12.5 μl of 2× Master Mix, 0.4 μl of 10 μM FW primer 5′-[…]-3′ (SEQ ID NO: 14) and 0.4 μl of […] RV primer 5′-[…]-3′ (SEQ ID NO: 15) were added to a PCR tube, mixed, after which 2 μl cDNA (50 ng) was added, to yield a total volume of 25 μl. These samples were subjected to a PCR run of 1 min at 94° C., 35 cycles of 5 sec at 98° C., 5 sec at 55° C., 5 sec at 72° C., followed by 1 min at 72° C. Samples were mixed with 2 μl 6× loading buffer, then 16 μl were loaded onto an 2% agarose gel and ran for 60-90 min at 80 V. Gels were imaged and band intensities were quantified with a ChemiDoc™ XRS+System and Image Lab™ Software (BioRad). The expected non-skipped product has a size of 788 bp, and the skip product of 575 bp, respectively.
Murine myoblast cell line C2C12 was maintained in 10% FBS DMEM medium+Pen/Strep and plated at 240,000 cells per well (cpw) in 24-well plates, or at 40,000 cpw in 96-well plates (wp), in maintenance medium (10% FBS in DMEM medium+Pen/Strep) and incubated at 37° C. with 5% CO2. Twenty-four hours after seeding, cells were switched to differentiation media (2% horse serum in DMEM) and incubated for 3 days before refreshing the medium. After another 24 hours, medium was refreshed again and compounds were added and incubated for 48 hours. At 48 hours total post treatment, cells in the 24-wp were harvested for exon skip analysis and the cell viability was assessed on the 96-wp.
Performed as described above in the Methods (as performed in Examples 1-5).

dystrophin exon 51 = assay: Exon 51 skip analysis in differentiated human myotubes from a non-DMD (healthy) donor (KM155); assay type: cell-based; conditions: for % exon skipping: 72 hrs
Protocol: Immortalized human myoblasts from non-DMD donors (KM155) and myoblasts from a DMD-affected donor (DM8036) were cultured in Skeletal Muscle Cell Growth Medium (PromoCell, Germany) with supplementary pack according to manufacturer's instructions, further supplemented with 15% fetal bovine serum (Gibco, United Kingdom), and 0.5% gentamicin (Sigma-Aldrich, USA). For differentiation, cells were seeded on a 0.5% gelatine-coated surface, and at ˜70-80% confluence, the proliferation medium was replaced by DMEM (Gibco) supplemented with 2% FBS (Gibco), 2% GlutaMAX, and 1% glucose (Sigma-Aldrich) and 0.5% gentamycin. Treatments were started after at least 3 days up to a maximum of 5 days of differentiation (based on the presence of differentiated myotubes).
RNA was isolated with the TRIsure Isolation Reagent (Bioline) and chloroform extraction; isopropanol precipitation of RNA from the aqueous phase was performed as known to someone skilled in the art. For cDNA synthesis, 1000 ng of total RNA was used and diluted in an appropriate amount of RNase-free water to yield 8 μl RNA dilution. The priming premixed contained 1 μl dNTP mix (10 mM each) and 1 μl specific reverse primer (for KM155, h53R 5′-[…]-3′ [SEQ ID NO: 5]; for DM8036, h55R 5′-[…]-3′ [SEQ ID NO: 6]). This mixture was heated for 5 min at 70° C., then chilled on ice for at least 1 min. A reaction mixture was prepared containing 0.5 μl rRNasin (Promega), 4.0 μl RT buffer, 1.0 μl Tetro RT (Bioline), and 4.5 μl RNase-free water, and was added to the chilled mixture to yield a total volume of 20 μl per reaction. The RT-PCR was run for 60 min at 42° C., then 5 min at 85° C., and chilled on ice. For skip analysis, a nested PCR approach was followed. To this end, in the first PCR, 3 μl cDNA were added to a mix of 2.5 μl 10× SuperTaq PCR buffer, 0.5 μl dNTP mix (10 mM each), 0.125 μl Taq DNA polymerase TAQ-RO (5 U/μl; Roche) 16.875 μl RNase-free water and 1 μl (10 pmol/μl) of each primer flanking the targeted exons were used: for KM155, h48F 5′-[…]-3′ [SEQ ID NO: 7] and h53R 5′-[…]-3′ [SEQ NO: ID 5]; for DM8036, h47F2 5′-[…]-3′ [SEQ ID NO: 8] and h54R 5′-[…]-3′ [SEQ ID NO: 9]. These samples were subjected to a PCR run of 5 min at 94° C., then 25 cycles with 40 sec at 94° C., 40 sec at 60° C., 180 sec at 72° C., after which for 7 min at 72° C. For the second PCR, 1.5 μl PCR1 sample were added to a mix of 5 μl 10× SuperTaq PCR buffer, 1 μl dNTP mix (10 mM each), 0.25 μl Taq DNA polymerase TAQ-RO (5 U/μl; Roche), 38.25 μl RNase-free water and 2 μl (10 pmol/μl) of each primer flanking the targeted exons were used: for KM155, h49F 5′-[…]-3′ [SEQ ID NO: 10] and h52R2 5′-[…]-3′ [SEQ ID NO: 11]; for DM8036, h47F 5′-[…]-3′ [SEQ ID NO: 12] and h53R 5′-[…]-3′ [SEQ ID NO: 13]. These samples were subjected to a PCR run of 5 min at 94° C., then 32 cycles with 40 sec at 94° C., 40 sec at 60° C., 60 sec at 72° C., after which for 7 min at 72° C. Exon skipping levels were quantified with the Femto Pulse System using the Ultra Sensitivity NGS Kit (Agilent), according to the manufacturer's instructions. Alternatively, the specific PCR fragments were analyzed using Bioanalyzer 2100 with DNA1000 chip (lab-on-a-chip; Agilent), or separated on 2% agarose gels run at 120 V. Gels were imaged and band intensities were quantified using ImageJ. The expected non-skipped product has a size of 408 bp (KM155) and 475 bp (DM8036), and the skip product of 175 bp (KM155) or 242 bp (DM8036), respectively.
Immortalized human myoblasts from non-DMD donors (KM155) were cultured as described above in the Methods (as performed in Examples 1-5).
RNA was isolated with the TRIsure Isolation Reagent (Bioline) and chloroform extraction; isopropanol precipitation of RNA from the aqueous phase was performed as known to someone skilled in the art. […]

IGF-1-SO1861+500 nM M23D: IGF-1-SO1861 (DAR2.7) co-administered with 500 nM M23D
exon 23 skip (dystrophin exon 23; 133 nM IGF-1-SO1861 + 500 nM M23D): 8% | exon 23 skip (dystrophin exon 23; 667 nM IGF-1-SO1861 + 500 nM M23D): 11% | exon 23 skip (dystrophin exon 23; 3333 nM IGF-1-SO1861 + 500 nM M23D): 19%

DMD-PMO: PMO 5′-CTCCAACATCAAGGAAGATGGCATTTCTAG-3′ [SEQ ID NO: 2]; exon 51 skipping; same sequence but not 5′-modifications as eteplirsen (all phosphorodiamidate morpholino (PMO))
improvement in potency with vs without SO1861-EMCH or SO1861-SC-Mal co-administration (dystrophin exon 51): one to two orders of magnitude lower | % exon skipping (dystrophin exon 51; 0.08 μM DMD oligo alone, Femto): 0% | % exon skipping (dystrophin exon 51; 0.31 μM DMD oligo alone, Femto): 0% | % exon skipping (dystrophin exon 51; 1.25 μM DMD oligo alone, Femto): 0% | % exon skipping (dystrophin exon 51; 5 μM DMD oligo alone, Femto): 0% | % exon skipping (dystrophin exon 51; 20 μM DMD oligo alone, Femto): 4%

DMD-ASO: 2′O-methyl-phosporothioate antisense oligonucleotide 5′-UCAAGGAAGAUGGCAUUUCU-3′ [SEQ ID NO: 1]; exon 51 skipping; same sequence and chemistry as drisapersen (antisense mU*mC*mA*mA*mG*mG*mA*mA*mG*mA*mU*mG*mG*mC*mA*mU*mU*mU*mC*mU; further chemistry not fully specified)
improvement in potency with vs without SO1861-EMCH or SO1861-SC-Mal co-administration (dystrophin exon 51): one to two orders of magnitude lower | % exon skipping (dystrophin exon 51; 0.08 μM DMD oligo alone, Lab-on-a-chip): 0% | % exon skipping (dystrophin exon 51; 0.31 μM DMD oligo alone, Lab-on-a-chip): 0% | % exon skipping (dystrophin exon 51; 1.25 μM DMD oligo alone, Lab-on-a-chip): 0% | % exon skipping (dystrophin exon 51; 5 μM DMD oligo alone, Lab-on-a-chip): 1%

M23D: PMO 5′-GGCCAAACCTCGGCTTACCTGAAAT-3′ [SEQ ID NO: 3] that induces exon 23 skipping of mouse dystrophin (all phosphorodiamidate morpholino (PMO))
exon 23 skip (dystrophin exon 23; 500 nM M23D alone (0 nM conjugate)): 5% | exon 23 skip activity (dystrophin exon 23; 500 nM M23D alone, 48 h): no exon skip activity

Reference: patent US20250082759A1, “COMPOSITIONS COMPRISING THERAPEUTIC NUCLEIC ACID AND TARGETED SAPONIN FOR THE TREATMENT OF MUSCLE-WASTING DISORDERS” (SAPREME TECHNOLOGIES B.V., priority 2021, published 2025)
